In PMC5341070, “Small molecule inhibitors block Gas6-inducible TAM activation and tumorigenicity” (Scientific Reports, 2017) one finds IC50 data, which are given here for one molecule.

The target of the experiment is T1, Axl (Homo sapiens, UniProt P30530+Q14393).
T1 construct: extracellular and trans-membrane domain of Axl fused to IFN-γR1 intracellular domain; with Gas6
Kind of experiment: Gas6-induced hAxl/IFN-γR1 CHO reporter (pSTAT1) inhibition; sAxl-Gas6 pull-down partially inhibited. The class given is cell-based.

T1 sequence (P30530 26-472 limits assumed): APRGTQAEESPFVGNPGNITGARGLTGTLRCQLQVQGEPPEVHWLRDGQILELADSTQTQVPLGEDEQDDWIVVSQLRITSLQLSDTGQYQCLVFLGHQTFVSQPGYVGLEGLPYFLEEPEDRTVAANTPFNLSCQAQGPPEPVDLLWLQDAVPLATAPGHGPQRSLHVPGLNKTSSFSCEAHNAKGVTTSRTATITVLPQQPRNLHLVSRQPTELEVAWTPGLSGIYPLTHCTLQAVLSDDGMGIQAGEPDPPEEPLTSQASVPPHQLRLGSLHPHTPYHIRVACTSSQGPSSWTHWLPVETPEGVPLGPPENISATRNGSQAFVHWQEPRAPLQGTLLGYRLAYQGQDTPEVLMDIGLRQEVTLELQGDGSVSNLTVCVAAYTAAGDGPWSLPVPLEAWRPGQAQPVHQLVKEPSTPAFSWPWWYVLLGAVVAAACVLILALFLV
T1 sequence (Q14393 31-678): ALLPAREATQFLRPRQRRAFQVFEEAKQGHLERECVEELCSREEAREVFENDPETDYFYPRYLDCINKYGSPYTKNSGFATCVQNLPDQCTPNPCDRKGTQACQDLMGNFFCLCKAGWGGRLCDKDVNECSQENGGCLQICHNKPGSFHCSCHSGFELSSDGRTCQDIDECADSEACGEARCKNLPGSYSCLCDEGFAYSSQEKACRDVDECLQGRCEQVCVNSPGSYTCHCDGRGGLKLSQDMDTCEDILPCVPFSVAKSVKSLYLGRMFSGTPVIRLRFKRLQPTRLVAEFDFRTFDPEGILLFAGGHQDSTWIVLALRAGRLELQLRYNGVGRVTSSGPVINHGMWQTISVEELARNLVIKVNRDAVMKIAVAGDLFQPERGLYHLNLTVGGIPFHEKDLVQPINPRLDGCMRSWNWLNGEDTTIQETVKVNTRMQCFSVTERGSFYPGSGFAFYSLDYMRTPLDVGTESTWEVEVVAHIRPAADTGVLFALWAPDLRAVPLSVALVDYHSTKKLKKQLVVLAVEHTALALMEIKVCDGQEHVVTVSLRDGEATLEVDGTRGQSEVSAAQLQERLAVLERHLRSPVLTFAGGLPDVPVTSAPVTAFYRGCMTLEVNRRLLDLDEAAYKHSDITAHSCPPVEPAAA

On to `Cc1noc(C)c1CSc1ccccc1C(=O)N1CCN(c2cccc(C(F)(F)F)c2)CC1` [RU-302], for which the IC50 result is listed as “low micromolar”.
